# System: not listed separately
# Assay: Solubility in cruzain assay buffer
# Type: physicochemical
# Conditions: sodium acetate 0.1 M pH 5.5, β-mercaptoethanol 10 mM
row,Compound,solubility in the cruzain assay buffer
1,O=C(Nc1nc2ccccc2[nH]1)c1ccccc1NS(=O)(=O)c1ccc(Cl)cc1 [Compound 6],insoluble
2,Cc1cc(C(=O)c2ccccc2NS(=O)(=O)c2ccc(F)cc2)nn1-c1ccccc1 [Compound 13],insoluble

# Molecular target: cruzain (Trypanosoma cruzi, UniProt P25779)
# Assay: Cruzain counter-screening enzyme assay (Z-Phe-Arg-AMC)
# Type: biochemical
# Conditions: compound 10 µM; 10 min preincubation; pH 5.5
# Experimental: Cruzain activity was measured by monitoring the fluorescence signal obtained by cleavage of the fluorogenic substrate Z-Phe-Arg-AMC, following a well-established protocol. The fluorescence intensity (excitation λ: 340 nm; emission λ: 440 nm) was monitored for at least 5 min. All assays were performed in sodium acetate 0.1 M at pH 5.5 and β-mercaptoethanol 10 mM. The final protein concentration was 0.1 nM, and the substrate concentration was 2.5 µM. Each condition was tested in triplicate and two independent assays (n = 6 data points), with preincubation of the enzyme for 10 min at 25 °C. Assays were performed at compound concentrations near the IC50 value against ZIKV NS2B-NS3pro.
# Chain of cruzain (P25779 123-467): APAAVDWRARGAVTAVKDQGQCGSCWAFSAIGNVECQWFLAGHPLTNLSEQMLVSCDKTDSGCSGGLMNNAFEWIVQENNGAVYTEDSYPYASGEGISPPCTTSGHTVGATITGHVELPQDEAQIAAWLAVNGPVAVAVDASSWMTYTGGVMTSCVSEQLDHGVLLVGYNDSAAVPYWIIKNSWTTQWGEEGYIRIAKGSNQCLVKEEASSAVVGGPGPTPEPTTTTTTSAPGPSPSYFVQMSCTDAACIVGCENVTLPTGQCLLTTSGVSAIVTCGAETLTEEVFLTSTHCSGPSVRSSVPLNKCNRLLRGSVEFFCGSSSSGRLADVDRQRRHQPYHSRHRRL
row,Compound,inhibition at 10 µM
1,O=C(Nc1nc2cccc(Cl)c2[nH]1)c1ccccc1NS(=O)(=O)c1ccc(F)cc1 [Compound 5],69 ± 24%

# System: not listed separately
# Assay: Cytotoxicity MTT assay (CC50)
# Conditions: African green monkey, Vero (ATCC CCL-81) cells
# Experimental: (§1) The Vero (ATCC® CCL-81™) cell line was used for the cytotoxicity assays and antiviral activity evaluation against ZIKV. Cells were cultured in Eagle’s minimum essential media (MEM) (Cultilab, Campinas, Brazil). The media was supplemented with 5% fetal bovine serum (FBS) (Cultilab, Brazil), in addition to 100 IU/mL penicillin (Cellofarm, Rio De Janeiro, Brazil), 100 μg/mL streptomycin (Merck, Darmstadt, Germany), and 0.25 μg/mL amphotericin B (Cultilab, Brazil).
# (§2) Cells were seeded in 96-well microplates (4.0 × 10^4 cells per well) and incubated at 37 °C and 5% CO2 for 24 h. Then, 200 µL of MEM with 1% FBS containing a serial dilution of the compounds (100 to 12.5 µM) was added. As vehicle control, a serial dilution of DMSO was used. After 72 h of incubation under the same conditions, 100 μL of 3-(4,5-dimethylthiazol-2-yl)-2,5-diphenyltetrazolium bromide (MTT; ThermoFischer Scientific, Waltham, MA, USA) [76] diluted in MEM (0.5 mg/mL) was added to each well and incubated for 3 h. The media was removed, and 100 μL of DMSO was added to each well to solubilize formazan crystals and shaken for 20 min. The absorbance was read at 570 nm using a spectrophotometer (VersaMax, Molecular Devices, San Jose, CA, USA). The percentages of inhibition of cell viability were calculated as the ratio between the absorbance of the compound-treated cells and cells with only the vehicle. […] Linear regression (LR) was used for the analysis, considering results with r^2 > 0.9. All conditions were tested in triplicate and one independent assay (n = 3 data points).
row,Compound,CC50 at 72 h
1,O=C(Nc1nc2cccc(Cl)c2[nH]1)c1ccccc1NS(=O)(=O)c1ccc(F)cc1 [Compound 5],< 12.5 µM
2,O=C(Nc1nc2ccccc2[nH]1)c1ccccc1NS(=O)(=O)c1ccc(Cl)cc1 [Compound 6],38.4 ± 2.18 µM
3,Cc1cc(C(=O)c2ccccc2NS(=O)(=O)c2ccc(F)cc2)nn1-c1ccccc1 [Compound 13],< 12.5 µM

# System: Vero (ATCC CCL-81) cell line
# Assay: Cytotoxicity MTT assay (CC50)
# Conditions: Vero cells; compound 12.5 µM
# Experimental: as §1, §2
row,Compound,Cell viability as percentage of cell control (mean absorbance / CELL)
1,O=C(Nc1nc2cccc(Cl)c2[nH]1)c1ccccc1NS(=O)(=O)c1ccc(F)cc1 [Compound 5],44.8735
2,O=C(Nc1nc2ccccc2[nH]1)c1ccccc1NS(=O)(=O)c1ccc(Cl)cc1 [Compound 6],63.7676
3,Cc1cc(C(=O)c2ccccc2NS(=O)(=O)c2ccc(F)cc2)nn1-c1ccccc1 [Compound 13],41.6898

# Same assay, conditions: Vero cells; compound 25 µM
row,Compound,Cell viability as percentage of cell control (mean absorbance / CELL)
1,O=C(Nc1nc2cccc(Cl)c2[nH]1)c1ccccc1NS(=O)(=O)c1ccc(F)cc1 [Compound 5],19.4433
2,O=C(Nc1nc2ccccc2[nH]1)c1ccccc1NS(=O)(=O)c1ccc(Cl)cc1 [Compound 6],61.7079
3,Cc1cc(C(=O)c2ccccc2NS(=O)(=O)c2ccc(F)cc2)nn1-c1ccccc1 [Compound 13],25.5093

# Same assay, conditions: Vero cells; compound 50 µM
row,Compound,Cell viability as percentage of cell control (mean absorbance / CELL)
1,O=C(Nc1nc2cccc(Cl)c2[nH]1)c1ccccc1NS(=O)(=O)c1ccc(F)cc1 [Compound 5],14.9121
2,O=C(Nc1nc2ccccc2[nH]1)c1ccccc1NS(=O)(=O)c1ccc(Cl)cc1 [Compound 6],41.6329
3,Cc1cc(C(=O)c2ccccc2NS(=O)(=O)c2ccc(F)cc2)nn1-c1ccccc1 [Compound 13],21.6435

# Same assay, conditions: Vero cells; compound 100 µM
row,Compound,Cell viability as percentage of cell control (mean absorbance / CELL)
1,O=C(Nc1nc2cccc(Cl)c2[nH]1)c1ccccc1NS(=O)(=O)c1ccc(F)cc1 [Compound 5],15.1318
2,O=C(Nc1nc2ccccc2[nH]1)c1ccccc1NS(=O)(=O)c1ccc(Cl)cc1 [Compound 6],48.6633
3,Cc1cc(C(=O)c2ccccc2NS(=O)(=O)c2ccc(F)cc2)nn1-c1ccccc1 [Compound 13],12.8704

# Molecular target: ZIKV NS2B-NS3pro (Zika virus, UniProt A0A024B7W1, C1582S/C1645S/R1467A/R1531G)
# Assay: ZIKV NS2B-NS3pro inhibitory assay with fluorogenic substrate Bz-Nle-Lys-Lys-Arg-AMC
# Type: biochemical
# Conditions: 0.005% Tween-20; enzyme 0.2 nM; substrate 44 µM; read-out: ZIKV NS2B/NS3pro IC50
row,Compound,IC50
1,Cc1cc(C(=O)c2ccccc2NS(=O)(=O)c2ccc(F)cc2)nn1-c1ccccc1 [Compound 13],28 ± 1 µM

# Same assay, conditions: compound 10 µM (close to IC50); CHAPS 1 mM; enzyme 0.2 nM
row,Compound,% ZIKV NS2B/NS3pro Inhibition [Enzyme] = 0.2 nM
1,O=C(Nc1nc2cccc(Cl)c2[nH]1)c1ccccc1NS(=O)(=O)c1ccc(F)cc1 [Compound 5],62 ± 0.1%

# Same assay, conditions: compound 10 µM (close to IC50); CHAPS 1 mM; enzyme 2 nM
row,Compound,% ZIKV NS2B/NS3pro Inhibition [Enzyme] = 2 nM
1,O=C(Nc1nc2cccc(Cl)c2[nH]1)c1ccccc1NS(=O)(=O)c1ccc(F)cc1 [Compound 5],23 ± 8%

# Same assay, conditions: compound 25 µM (close to IC50); CHAPS 1 mM; enzyme 0.2 nM
row,Compound,% ZIKV NS2B/NS3pro Inhibition [Enzyme] = 0.2 nM
1,O=C(Nc1nc2ccccc2[nH]1)c1ccccc1NS(=O)(=O)c1ccc(Cl)cc1 [Compound 6],99 ± 0.4%
2,Cc1cc(C(=O)c2ccccc2NS(=O)(=O)c2ccc(F)cc2)nn1-c1ccccc1 [Compound 13],43 ± 0.1%

# Same assay, conditions: compound 25 µM (close to IC50); CHAPS 1 mM; enzyme 2 nM
row,Compound,% ZIKV NS2B/NS3pro Inhibition [Enzyme] = 2 nM
1,O=C(Nc1nc2ccccc2[nH]1)c1ccccc1NS(=O)(=O)c1ccc(Cl)cc1 [Compound 6],66 ± 21%
2,Cc1cc(C(=O)c2ccccc2NS(=O)(=O)c2ccc(F)cc2)nn1-c1ccccc1 [Compound 13],26 ± 10%

# Same assay, conditions: compound 100 µM; 0.001% Triton X-100, no Tween-20; 10 min preincubation
row,Compound,% ZIKV NS2B/NS3pro Inhibition (100 µM) 0.001% Triton
1,O=C(Nc1nc2cccc(Cl)c2[nH]1)c1ccccc1NS(=O)(=O)c1ccc(F)cc1 [Compound 5],93 ± 3%
2,O=C(Nc1nc2ccccc2[nH]1)c1ccccc1NS(=O)(=O)c1ccc(Cl)cc1 [Compound 6],89 ± 6%
3,Cc1cc(C(=O)c2ccccc2NS(=O)(=O)c2ccc(F)cc2)nn1-c1ccccc1 [Compound 13],100 ± 0%

# Same assay, conditions: compound 100 µM; 0.01% Triton X-100, no Tween-20; 10 min preincubation
row,Compound,% ZIKV NS2B/NS3pro Inhibition (100 µM) 0.01% Triton
1,O=C(Nc1nc2cccc(Cl)c2[nH]1)c1ccccc1NS(=O)(=O)c1ccc(F)cc1 [Compound 5],6 ± 8%
2,O=C(Nc1nc2ccccc2[nH]1)c1ccccc1NS(=O)(=O)c1ccc(Cl)cc1 [Compound 6],7 ± 9%
3,Cc1cc(C(=O)c2ccccc2NS(=O)(=O)c2ccc(F)cc2)nn1-c1ccccc1 [Compound 13],45 ± 9%

# Same assay, conditions: compound 100 µM; 10 min pre-incubation with BSA 1 mg/mL before enzyme
row,Compound,% ZIKV NS2B/NS3pro Inhibition (100 µM) BSA
1,O=C(Nc1nc2cccc(Cl)c2[nH]1)c1ccccc1NS(=O)(=O)c1ccc(F)cc1 [Compound 5],94 ± 8%
2,O=C(Nc1nc2ccccc2[nH]1)c1ccccc1NS(=O)(=O)c1ccc(Cl)cc1 [Compound 6],55 ± 20%
3,Cc1cc(C(=O)c2ccccc2NS(=O)(=O)c2ccc(F)cc2)nn1-c1ccccc1 [Compound 13],57 ± 15%

# Same assay, conditions: compound 100 µM; 10 min preincubation with enzyme; 0.005% Tween-20; enzyme 0.2 nM
row,Compound,% ZIKV NS2B/NS3pro Inhibition (100 µM) With Preincubation
1,O=C(Nc1nc2cccc(Cl)c2[nH]1)c1ccccc1NS(=O)(=O)c1ccc(F)cc1 [Compound 5],100 ± 0%
2,O=C(Nc1nc2ccccc2[nH]1)c1ccccc1NS(=O)(=O)c1ccc(Cl)cc1 [Compound 6],100 ± 0%
3,Cc1cc(C(=O)c2ccccc2NS(=O)(=O)c2ccc(F)cc2)nn1-c1ccccc1 [Compound 13],95 ± 2%

# Same assay, conditions: compound 100 µM; no preincubation; 0.005% Tween-20
row,Compound,% ZIKV NS2B/NS3pro Inhibition (100 µM) Without Preincubation
1,O=C(Nc1nc2cccc(Cl)c2[nH]1)c1ccccc1NS(=O)(=O)c1ccc(F)cc1 [Compound 5],100 ± 0%
2,O=C(Nc1nc2ccccc2[nH]1)c1ccccc1NS(=O)(=O)c1ccc(Cl)cc1 [Compound 6],99 ± 2%
3,Cc1cc(C(=O)c2ccccc2NS(=O)(=O)c2ccc(F)cc2)nn1-c1ccccc1 [Compound 13],100 ± 1%

# Same assay, conditions: from dose-response curve, replica 1
row,Compound,Hill Slope Replica 1
1,O=C(Nc1nc2cccc(Cl)c2[nH]1)c1ccccc1NS(=O)(=O)c1ccc(F)cc1 [Compound 5],3.333
2,O=C(Nc1nc2ccccc2[nH]1)c1ccccc1NS(=O)(=O)c1ccc(Cl)cc1 [Compound 6],6.697
3,Cc1cc(C(=O)c2ccccc2NS(=O)(=O)c2ccc(F)cc2)nn1-c1ccccc1 [Compound 13],5.057

# Same assay, conditions: from dose-response curve, replica 2
row,Compound,Hill Slope Replica 2
1,O=C(Nc1nc2cccc(Cl)c2[nH]1)c1ccccc1NS(=O)(=O)c1ccc(F)cc1 [Compound 5],1.731
2,O=C(Nc1nc2ccccc2[nH]1)c1ccccc1NS(=O)(=O)c1ccc(Cl)cc1 [Compound 6],4.362
3,Cc1cc(C(=O)c2ccccc2NS(=O)(=O)c2ccc(F)cc2)nn1-c1ccccc1 [Compound 13],5.334

# Same assay, conditions: one value per independent assay (two curves per compound); read-out: IC50 of the individual curves for NS2B-NS3pro inhibitors (Figure 3)
row,Compound,IC50
1,Cc1cc(C(=O)c2ccccc2NS(=O)(=O)c2ccc(F)cc2)nn1-c1ccccc1 [Compound 13],29 µM

# Source: PMC10537087, “Evaluating Known Zika Virus NS2B-NS3 Protease Inhibitor Scaffolds via In Silico Screening and Biochemical Assays” (Pharmaceuticals, 2023)
